As a reminder, the IC50 is the midpoint of a concentration-inhibition curve.

Assay [1] has as its target T1, SARS-CoV-2 S-protein RBD WT (Severe acute respiratory syndrome coronavirus 2, UniProt P0DTC2).
T1 construct: made in house; host or cells: Expi293F cells
Type of assay: binding. The following applies: immobilized heparin, 1:1 Langmuir global fit, 25° C.

Another assay addresses T2, S-protein RBD (WT) (Severe acute respiratory syndrome coronavirus 2, UniProt P0DTC2).
T2 construct: made in house; host or cells: Expi293F cells
The assay is classed as binding, SARS-CoV-2.

In assay [2] the test system is SARS-CoV-2 pseudotyped viral particles (wild-type). The assay is classed as binding.

In the case of heparin, in assay [1], the ka is reported as 1427 1/MS and the kd was 2.5 × 10^−4 1/S. The IC50 at S-protein RBD (WT) (read-out: IC50 against the S-protein RBD binding to immobilized heparin) is 56 nM.
For `O=S(=O)(O)c1cc2c(O)c(c1)Cc1cc(S(=O)(=O)O)cc(c1O)Cc1cc(S(=O)(=O)O)cc(c1O)Cc1cc(S(=O)(=O)O)cc(c1O)Cc1cc(S(=O)(=O)O)cc(c1O)Cc1cc(S(=O)(=O)O)cc(c1O)Cc1cc(S(=O)(=O)O)cc(c1O)Cc1cc(S(=O)(=O)O)cc(c1O)C2` [GL-522-Y-1], at S-protein RBD (WT), the “inhibition of the S-protein-heparin interaction (FIG. 5)” value (“inhibition … (FIG. 5)” below) is “more modest inhibition activity”.
In the case of sulfated lactobionic acid, the “inhibition … (FIG. 5)” value against S-protein RBD (WT) is given as “more modest inhibition activity”.
Regarding pentosan polysulfate [PPS], the “inhibition … (FIG. 5)” value against S-protein RBD (WT) is “potently inhibited”. The “inhibition of pseudotyped viral particle binding to heparin surface compared with heparin control” value in assay [2] is given as “stronger inhibition”.
mucopolysaccharide polysulfate [MPS]: the “inhibition … (FIG. 5)” value against S-protein RBD (WT) is recorded as “potently inhibited”. The “inhibition of pseudotyped viral particle binding to heparin surface compared with heparin control” value in assay [2] is listed as “stronger inhibition”.
